# Measured values from ChEMBL document CHEMBL1139174, “Modeling of human ghrelin receptor (hGHS-R1a) in its close state and validation by molecular docking” (Bioorg Med Chem, 2007).
# Square brackets hold non-standard residues; d marks the D form. Peptide text beside a SMILES is read from it. d(hPhe) = N[C@H](CCc1ccccc1)C(=O)O; Aib = CC(C)(N)C(=O)O
# Molecular target: Growth hormone secretagogue receptor type 1 (Homo sapiens, UniProt Q92847)
# Assay: Agonist activity at human GHS-R1
# Format: functional
# Conditions: not given
# Growth hormone secretagogue receptor type 1, sequence (Q92847 whole entry): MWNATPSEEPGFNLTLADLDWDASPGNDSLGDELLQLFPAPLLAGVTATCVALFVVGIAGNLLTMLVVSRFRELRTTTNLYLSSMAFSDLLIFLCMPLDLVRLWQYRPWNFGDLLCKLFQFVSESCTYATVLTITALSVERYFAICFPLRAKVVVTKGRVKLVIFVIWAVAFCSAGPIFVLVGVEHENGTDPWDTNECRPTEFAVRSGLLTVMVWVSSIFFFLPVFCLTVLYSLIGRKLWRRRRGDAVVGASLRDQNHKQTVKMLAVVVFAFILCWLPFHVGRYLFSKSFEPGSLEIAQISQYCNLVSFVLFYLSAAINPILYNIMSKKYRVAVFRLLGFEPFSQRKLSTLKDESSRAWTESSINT
row,Log EC50,SMILES
1,-8.6,CC(C)(N)C(=O)N[C@H](CCCc1ccccc1)C(=O)N1CCC2(CC1)C[S+]([O-])c1ccccc12 (some centres not stated)

# Same assay, conditions: read-out: EC50
row,EC50 [nM],SMILES
1,3,CCOC(=O)[C@@H](CCc1ccccc1)NC(=O)[C@@H](Cc1c[nH]c2ccccc12)NC(=O)C(C)(C)N (H-[Aib]-[dW]-[d(hPhe)]-OEt)
2,2.3,CC(C)(N)C(=O)N[C@H](CCCc1ccccc1)C(=O)N1CCN(c2ccccc2NS(=O)(=O)CC(=O)O)CC1
3,1.8,O=C(N[C@H](Cc1ccc2ccccc2c1)C(=O)N[C@@H](CO)Cc1ccc2ccccc2c1)C1CCNCC1
4,3,CNC(C)(C)C/C=C/C(=O)N(C)[C@H](Cc1ccc2ccccc2c1)C(=O)N(C)CCc1ccccc1
5,1,NCC(O)CNC(=O)[C@@H](Cc1cccc2ccccc12)NC(=O)CCCN1C(=O)CCSc2ccccc21 (some centres not stated)
6,4.5,COC(=O)CS(=O)(=O)Nc1ccccc1N1CCN(C(=O)[C@@H](CCCc2ccccc2)NC(=O)C(C)(C)N)CC1
7,17,NCCCCNC(=O)[C@@H](Cc1ccc2ccccc2c1)NC(=O)[C@@H](Cc1ccc2ccccc2c1)NC(=O)C1CCNCC1
8,10,NCCNC(=O)[C@@H](Cc1cccc2ccccc12)NC(=O)CCN1C(=O)CCS(=O)(=O)c2ccccc21
9,10,O=C(N[C@H](Cc1ccc2ccccc2c1)C(=O)N[C@@H](CO)Cc1c[nH]c2ccccc12)C1CCNCC1
10,0.8,CCNC(=O)[C@]1(Cc2ccccc2)CCCN(C(=O)[C@@H](Cc2c[nH]c3ccccc23)NC(=O)C(C)(C)N)C1
11,6.3,CC(C)(N)C(=O)N[C@H](CCCc1ccccc1)C(=O)N1CCN(c2ccccc2NS(C)(=O)=O)CC1
12,1.6,CCOC(=O)[C@]1(Cc2ccccc2)CCCN(C(=O)[C@@H](Cc2c[nH]c3ccccc23)NC(=O)C(C)(C)N)C1
13,2.8,CC(C)S(=O)(=O)Nc1ccccc1N1CCN(C(=O)[C@@H](CCCc2ccccc2)NC(=O)C(C)(C)N)CC1
14,0.28,NC(=O)[C@@H](NC(=O)[C@@H](Cc1ccc2ccccc2c1)NC(=O)[C@@H](Cc1ccc2ccccc2c1)NC(=O)C1CCNCC1)c1ccccc1
15,100,Cc1ccccc1N1CCN(C(=O)[C@@H](CCCc2ccccc2)NC(=O)C(C)(C)N)CC1

row,SMILES,EC50 [nM]
1,CCN(CC)CCN1C(=O)[C@@](O)(c2ccc3ccccc3c2)c2c1cc(C#CCCC(=O)N1CCOCC1)cc2C(F)(F)F,30
2,CCN(CC)CCN1C(=O)[C@@](O)(c2ccc3ccccc3c2)c2c1cc(C#CCCC(=O)N(C)C)cc2C(F)(F)F,30
3,CCN(CC)CCN1C(=O)[C@@](O)(c2ccc3ccccc3c2)c2c(Br)cccc21,77
4,CCN(CC)CCN1C(=O)[C@@](O)(c2ccc3ccccc3c2)c2c1cc(C(N)=O)cc2C(F)(F)F,18

# Same assay, conditions: read-out: Log EC50 (converted)
row,EC50 [nM],SMILES
1,2,NCC(O)CNC(=O)[C@@H](Cc1cccc2ccccc12)NC(=O)CCCN1C(=O)CCSc2ccccc21 (some centres not stated)
2,14.1,Cc1ccccc1N1CCN(C(=O)[C@@H](CCCc2ccccc2)NC(=O)C(C)(C)N)CC1
